Assay results published in the supplement of paper PMC11061612.

Assays:
Assay in all cases: combination Emax (second highest fraction inhibited in the dose matrix, 72 h); higher = more inhibition; extreme values may be limits of the assay
[1] = test system: BHT-101 (Thyroid Gland Carcinoma)
In short: (§1)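 After 24 hours at 37°C and 5% CO2 in 1536-well plates, cells in DMEM/F12 or RPMI plus 10% FBS received two-drug dose matrices for 72 hours. Viability came from CellTiter-Glo 2.0 luminescence and was scaled as inhibition, anchored at 0 by vehicle wells and at 1 by blank wells. Combination Emax is taken as the second-highest inhibition in the matrix, and Bliss excess as the observed combination effect less EA + EB − EA·EB, with EA and EB the single-agent effects.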

[2] = test system: HT-1080 (Other Solid Carcinomas)
In short: as §1

[3] = test system: LS-1034 (Colorectal Carcinoma)
In short: as §1

[4] = test system: MM1S (Plasma Cell Myeloma)
In short: as §1

[5] = test system: NCI-H1341 (Small Cell Lung Carcinoma)
In short: as §1

NCI-H226 (Mesothelioma) = test system: NCI-H226 (Mesothelioma)
In short: as §1

[6] = test system: NCI-H3118 (Head and Neck Carcinoma)
In short: as §1

[7] = test system: NCI-H596 (Other Solid Carcinomas)
In short: as §1

[8] = test system: SAT (Head and Neck Carcinoma)
In short: as §1

[9] = test system: SKG-IIIa (Cervical Carcinoma)
In short: as §1

[10] = test system: SNU-423 (Hepatocellular Carcinoma)
In short: as §1

[11] = test system: SiHa (Cervical Carcinoma)
In short: as §1

[12] = test system: TUR (Acute Myeloid Leukemia)
In short: as §1

[13] = test system: ZR-75-30 (Breast Carcinoma)
In short: as §1

Structure (SMILES)	combination Emax [1]	combination Emax [2]	combination Emax [3]	combination Emax [4]	combination Emax [5]	combination Emax (NCI-H226 (Mesothelioma))	combination Emax [6]	combination Emax [7]	combination Emax [8]	combination Emax [9]	combination Emax [10]	combination Emax [11]	combination Emax [12]	combination Emax [13]
CC1(C)CCC(CN2CCN(c3ccc(C(=O)NS(=O)(=O)c4ccc(NCC5CCOCC5)c([N+](=O)[O-])c4)c(Oc4cnc5[nH]ccc5c4)c3)CC2)=C(c2ccc(Cl)cc2)C1 [Venetoclax] + Cc1cc2ncnn2cc1Nc1ncc2c(n1)n(C1CCOCC1)c(=O)n2C [AZD7648] (first compound max 1 µM, 7x7, partner max 10 µM)	0.221	0.109	0.0935	0.229	0.444	0.171	0.137	0.226	0.284	0.24	0.292	0.18	0.102	0.123
CN(C)CCCOc1ccc(-c2ccc3ncc4c(c3c2)n(C2CCOCC2)c(=O)n4C)cn1 [AZD0156] + C=CCn1c(=O)c2cnc(Nc3ccc(N4CCN(C)CC4)cc3)nc2n1-c1cccc(C(C)(C)O)n1 [AZD1775] (first compound max 1 µM, partner max 1 µM)	0.423	0.331	0.289	0.732	0.675	0.196	0.842	0.307	0.427	0.203	0.506	0.143	0.772	0.156
Cc1c2c(nn1C)CSCc1cc(n(C)n1)CSc1cc(c3ccccc3c1)OCCCc1c(C(=O)O)n(C)c3c-2c(Cl)ccc13 [AZD5991] + CCN(CCO)CCCOc1ccc2c(Nc3cc(CC(=O)Nc4cccc(F)c4)[nH]n3)ncnc2c1 [AZD2811] (first compound max 1 µM, 7x7, partner max 1 µM)	0.267	0.264	0.227	0.982	0.341	0.262	0.625		0.811	0.235	0.335	0.368	0.536	0.511
COc1nnc2ccc(N3CCC(c4ccc(OCCN5CCN(C)C(=O)[C@H]5C)cc4)CC3)nn12 [AZD5153] + CN(CC[C@H](CSC1=CC=CC=C1)NC2=C(C=C(C=C2)S(=O)(=O)NC(=O)C3=CC=C(C=C3)N4CCC(CC4)[C@H](C5=CC=CC=C5C6=CC=C(C=C6)Cl)O)S(=O)(=O)C(F)(F)F)CCO [AZD4320] (first compound max 1 µM, 7x7, partner max 1 µM)	0.737	0.618		1	1			0.823	0.804			0.527	0.626	
C=CCn1c(=O)c2cnc(Nc3ccc(N4CCN(C)CC4)cc3)nc2n1-c1cccc(C(C)(C)O)n1 [AZD1775] + C[C@@H]1COCCN1C2=NC(=NC(=C2)C3(CC3)[S@](=N)(=O)C)C4=C5C=CNC5=NC=C4 [AZD6738] (first compound max 1 µM, partner max 10 µM)	0.771	0.476	0.763		0.941	0.466	0.855	0.663	0.469	0.586	0.747	0.371	0.938	0.296
CCc1c2c(nc3ccc(O)cc13)-c1cc3c(c(=O)n1C2)COC(=O)[C@]3(O)CC [SN-38] + O=C(c1cc(Cc2n[nH]c(=O)c3ccccc23)ccc1F)N1CCN(C(=O)C2CC2)CC1 [Olaparib] (first compound max 0.3 µM, 7x7, partner max 10 µM)		0.489	0.553		0.99	0.168	0.396		0.418	0.389	0.495	0.32	0.994	0.348
CC(=O)c1c(C)c2cnc(Nc3ccc(N4CCNCC4)cn3)nc2n(C2CCCC2)c1=O [Palbociclib] + CN(CC[C@H](CSC1=CC=CC=C1)NC2=C(C=C(C=C2)S(=O)(=O)NC(=O)C3=CC=C(C=C3)N4CCC(CC4)[C@H](C5=CC=CC=C5C6=CC=C(C=C6)Cl)O)S(=O)(=O)C(F)(F)F)CCO [AZD4320] (first compound max 10 µM, 7x7, partner max 1 µM)	0.598	0.415		0.964	0.992			0.521	0.485			0.104	0.381	
C[C@@H](c1ccc2nccn2c1)n1nnc2ncc(-c3cnn(C)c3)nc21 [Savolitinib] + CN(CC[C@H](CSC1=CC=CC=C1)NC2=C(C=C(C=C2)S(=O)(=O)NC(=O)C3=CC=C(C=C3)N4CCC(CC4)[C@H](C5=CC=CC=C5C6=CC=C(C=C6)Cl)O)S(=O)(=O)C(F)(F)F)CCO [AZD4320] (first compound max 1 µM, 7x7, partner max 1 µM)	0.176	0.566		0.974	1			0.275	0.189			0.224	0.135	
